# Assay results as given in US20240000765A1, “COMBINATION TREATMENT OF LIVER DISORDERS” (Terns Pharmaceuticals, Inc., priority 2020, published 2024).
# Where two headings read alike, the source gives them in different places.
# Key:
# THRβ = target: T1, THRβ (Homo sapiens, UniProt P10828); experiment: Binding activity to the thyroxine receptor beta; details: ratio of binding IC50
# T1 sequence (P10828 1-461): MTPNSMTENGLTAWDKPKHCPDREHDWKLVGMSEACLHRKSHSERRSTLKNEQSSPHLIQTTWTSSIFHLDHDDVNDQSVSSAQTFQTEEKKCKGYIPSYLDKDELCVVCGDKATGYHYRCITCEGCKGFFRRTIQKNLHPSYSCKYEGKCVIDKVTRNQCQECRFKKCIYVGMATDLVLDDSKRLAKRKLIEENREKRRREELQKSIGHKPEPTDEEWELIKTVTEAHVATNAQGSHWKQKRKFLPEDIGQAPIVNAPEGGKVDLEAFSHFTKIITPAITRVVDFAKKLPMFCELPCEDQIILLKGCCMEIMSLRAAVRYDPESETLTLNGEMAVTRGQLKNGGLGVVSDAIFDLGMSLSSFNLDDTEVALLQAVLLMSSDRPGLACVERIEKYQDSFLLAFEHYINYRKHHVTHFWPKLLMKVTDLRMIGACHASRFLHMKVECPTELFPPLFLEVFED
# THRα = target: T2, THRα (Homo sapiens, UniProt P10827); experiment: Binding activity to THRα; details: read-out: IC50 THRα binding force
# T2 sequence (P10827 1-410 isoform P10827-2): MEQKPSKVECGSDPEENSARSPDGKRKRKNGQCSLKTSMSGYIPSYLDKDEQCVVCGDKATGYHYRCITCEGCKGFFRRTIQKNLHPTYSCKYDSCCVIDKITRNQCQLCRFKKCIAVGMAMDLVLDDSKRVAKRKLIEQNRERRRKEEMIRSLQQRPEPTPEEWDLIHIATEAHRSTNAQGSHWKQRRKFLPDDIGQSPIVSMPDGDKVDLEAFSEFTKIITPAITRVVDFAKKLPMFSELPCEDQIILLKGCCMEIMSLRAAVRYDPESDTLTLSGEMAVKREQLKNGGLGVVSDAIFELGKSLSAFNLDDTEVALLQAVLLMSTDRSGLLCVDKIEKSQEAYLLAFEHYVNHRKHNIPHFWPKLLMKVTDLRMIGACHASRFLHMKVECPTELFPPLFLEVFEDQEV
# [1] = Pharmacokinetic evaluation in rats, intragastric infusion; assay type: in vivo; details: SD rats, intragastric 2 mg/kg
# Protocol: Drug Preparation: a certain amount of the drug was taken and added into a 2% Klucel LF+0.1% Tween 80 aqueous solution, to prepare a clear solution or a uniform suspension.
# Dosage: SD rats were fasted overnight and given the drug by intragastric infusion at an administrated dose of 2 mg/kg and an administrated volume of 10 mL/kg each.
# Operation: rats were dosed by intragastric infusion with the compounds. […] The heparinized sample tubes were then stored at −20° C., and the rats were allowed to eat food 2 h after the dosage.
# Determination of contents of the compounds to be tested in the plasma of rats after intragastric infusion of the drugs at different concentrations: the plasma samples were thawed at room temperature, 50 μL each was taken and added into 130 μL of an internal standard working solution (1000 ng/mL, acetonitrile, tolbutamide), and the mixture was whirled for about 1 min and then centrifugated at 4° C. and 13000 rpm for 10 min. 50 μL of the supernatant was taken and mixed with 100 μL of 50% acetonitrile water, and then introduced for LC/MS/MS analysis.
# [2] = other FXR agonists; cited from earlier work
# [3] = test system: FXR-regulated gene expression (SHP, BSEP, FGF-19) in human HuH7 hepatoma cells; experiment: Cell-based RNA assay of FXR-regulated gene expression; details: Huh-7, 11 h at 37° C., RT-qPCR
# Protocol: […]. See Kawamata et al JBC 278 (11)[…] (2003). […]. After 30 min at RT, cAMP was measured using an HTRF readout. EC50 values for FXR-regulated gene expression were determined using a cell-based RNA assay. […] After 11 h at 37° C., RNA was isolated and analyzed by RT-qPCR using primers to FXR-related genes: small heterodimer partner (SHP), bile salt export pump (BSEP) and fibroblast growth factor 19 (FGF-19).
# [4] = test system: FXR-regulated gene expression in liver and ileum; experiment: Mechanism of action: tissue RNA by RT-qPCR and RNAseq after a single oral dose; details: C57BL/6 mice, 6 hours; for number of differentially expressed NASH-related genes modulated vs vehicle (liver RNAseq): fold change≥1.5
# Protocol: The RNA was analyzed by RT-qPCR and RNAseq.
# For RNAseq analysis, mRNA was extracted from total liver and sequenced using standard Illumina library preparation and sequencing protocols. Differentially expressed genes (DEG) were determined using RSEM and edgeR software packages and analyzed using Advaita Bio's iPathwayGuide software.
# mouse hepatocytes = experiment: In vitro metabolic stability in cryopreserved hepatocytes (mouse); assay type: in vitro ADME; details: well-stirred liver model
# Protocol: (§1) In vitro half-life values were determined and scaled to predict hepatic clearance (CLpred) and hepatic extraction using the well-stirred liver model with no correction for plasma protein as described in Obach et al., The Prediction of Human Pharmacokinetic Parameters from Preclinical and In Vitro Metabolism Data, J. of Pharmacology and Experimental Therapeutics, vol. 283, no. 1, pp. 46-58 (1997).
# rat hepatocytes = experiment: In vitro metabolic stability in cryopreserved hepatocytes (rat); assay type: in vitro ADME; details: Sprague-Dawley rat hepatocytes; well-stirred liver model
# Protocol: as §1
# dog hepatocytes = experiment: In vitro metabolic stability in cryopreserved hepatocytes (dog); assay type: in vitro ADME; details: beagle dog hepatocytes; well-stirred liver model
# Protocol: as §1
# monkey hepatocytes = experiment: In vitro metabolic stability in cryopreserved hepatocytes (monkey); assay type: in vitro ADME; details: cynomolgus monkey hepatocytes; well-stirred liver model
# Protocol: as §1
# human hepatocytes = experiment: In vitro metabolic stability in cryopreserved hepatocytes (human); assay type: in vitro ADME; details: well-stirred liver model
# Protocol: as §1
# [5] = Pharmacokinetics assay, rat (IV and oral); assay type: in vivo, Sprague-Dawley (SD) rats; details: Sprague-Dawley rat, oral 10 mg/kg vs IV 1 mg/kg
# Text: (§2) Results are shown in FIG. 1A (IV administration) and FIG. 1B (oral administration), and in Table 2. […] Smaller Vdss in monkeys is correlated with higher plasma protein binding.
# [6] = Pharmacokinetics assay, dog (IV and oral); assay type: in vivo, beagle dogs; details: beagle dog
# Text: as §2
# [7] = Tissue distribution of radiolabeled (14C) compound after oral dose; assay type: in vivo; details: Long-Evans rats, oral 5 mg/kg (100 μCi/kg), up to 168 hours
# Protocol: Plasma, liver, small intestine, cecum, kidney, lung, heart and skin tissue samples were collected up to 168 hours, and the amount of radioactive material at various time points was measured.
# [8] = Metabolism and excretion of radiolabeled (14C) compound; assay type: in vivo; details: SD rats, oral 5 mg/kg or IV 2 mg/kg
# Protocol: Blood, bile, feces, and urine samples were collected from each rat for up to 168 hours.
# [9] = PK/PD profile, 7 consecutive daily oral doses; assay type: in vivo; details: cynomolgus monkeys, oral 1 mg/kg, 7 consecutive days
# [10] = Clinical study, First Study (healthy volunteers, 14 days); assay type: in vivo; details: healthy human volunteers, oral daily 5, 75, 200 or 400 mg
# [11] = rat, in vivo, iv, 2 mg/kg
# Text: Blood, liver, kidney, and lung tissue samples were collected from the rats to determine a tissue/plasma ratio.
# [12] = Clinical study, Second Study (7 days, 7AC4); details: for % 7AC4 suppression at nadir: human subjects
# mouse model of NASH = experiment: Mouse model of NASH (high fat diet + CCl4), Compound 1
# Protocol: Hematoxylin & Eosin (H&E) and Sirius Red histological staining of liver tissue was used to quantitate NAFLD activity score (NAS), steatosis, ballooning, inflammation and fibrosis. […] Gene expression of RNA was analyzed by RT-qPCR and RNAseq.
# NAS is calculated based upon liver steatosis, inflammation, and ballooning and was determined by analysis of liver tissue histology using H&E stain. […] Hepatocellular ballooning is a form of liver cell injury associated with cell swelling and is also measured by H&E stained liver sections. The ballooning score is calculated as follows: 0-no hepatocyte ballooning; 1-few ballooning hepatocytes; 2-many hepatocytes with prominent ballooning.
# Liver fibrosis was quantified by histological analysis of the percentage of Sirius Red-positive liver sections. […] Liver triglycerides were measured from liver tissue using a biochemical analyzer (Hitachi-700).
# [13] = single oral dose, Compound 1 10 mg/kg, OCA 30 mg/kg
# [14] = 10, 30, 100 mg/kg oral daily, 28 days
# [15] = 10, 30, 100 mg/kg oral daily, 28 days, H&E
# [16] = 10, 30, or 100 mg/kg oral daily, 28 days
compound,measurement,setting,value
N#Cc1nn(-c2cc(Cl)c(Oc3n[nH]c(=O)c4c(Cl)cccc34)c(Cl)c2)c(=O)[nH]c1=O [Compound 7],THRα/β selectivity (factor),THRβ,>6.80
same,IC50,THRα,> 10000 nM
N#Cc1nn(-c2cc(Cl)c(Oc3n[nH]c(=O)c4c3CCCC4)c(Cl)c2)c(=O)[nH]c1=O [Compound 3],THRα/β selectivity (factor),THRβ,> 8.1
same,IC50,THRα,> 10000 nM
CC1(C)CCc2c(Oc3c(Cl)cc(-n4cc(C#N)c(=O)[nH]c4=O)cc3Cl)n[nH]c(=O)c21 [Compound 6],Curve area,[1],9242 ± 1245 ng·h/mL
same,Time to peak,[1],5.33 ± 1.15 h
O=C(O)c1cc(F)c2nc(N3[C@@H]4CC[C@H]3C[C@@H](OCc3c(-c5ccccc5OC(F)(F)F)noc3C3CC3)C4)sc2c1 [tropifexor],pruritus in longer term studies,[2],known to result in pruritus
"CC[C@H]1[C@@H](O)[C@@H]2[C@H](CC[C@]3(C)[C@@H]([C@H](C)CCC(=O)O)CC[C@@H]23)[C@@]2(C)CC[C@@H](O)C[C@@H]12 [OCA, obeticholic acid]",EC50,[3]; read-out: BSEP Gene induction/HuH7 EC50,200 nM
same,EC50,[3]; read-out: FGF-19 Gene Induction/HuH7 EC50,130 nM
same,EC50,[3]; read-out: SHP Gene induction/HuH7 EC50,200 nM
same,pruritus in longer term studies,[2],known to result in pruritus
same,number of global pathways enriched (liver RNAseq),[4]; [13],6
same,number of differentially expressed NASH-related genes modulated vs vehicle (liver RNAseq),[4]; [13],44
O=C(O)c1ccnc(N2CC(O)(c3ccc(OCc4c(-c5c(Cl)cccc5Cl)noc4C4CC4)cc3Cl)C2)c1 [cilofexor],pruritus in longer term studies,[2],known to result in pruritus
"CC(C)c1cc(Oc2c(Cl)cc(-n3nc(C#N)c(=O)[nH]c3=O)cc2Cl)n[nH]c1=O [Reference compound, 2-[3,5-Dichloro-4-(5-isopropyl-6-oxo-1,6-dihydropyridazin-3-yloxy)phenyl]-3,5-dioxo-2,3,4,5-tetrahydro[1,2,4]triazine-6-carbonitrile, reference compound]",Curve area,[1],12854 ± 961 ng·h/mL
same,Peak blood drug concentration,[1],1163 ± 97.1 ng/mL
same,Time to peak,[1],5.3 ± 1.15 h
Cn1cc(C(=O)O)c2ccc(N3CCC(OCc4c(-c5c(Cl)cccc5Cl)noc4C4CC4)CC3)cc21 [Compound 1],Hepatic Extraction,mouse hepatocytes,80.7 ± 1.02%
same,In vitro Metabolic CLpred,mouse hepatocytes,72.7 ± 1 mL/min/kg
same,Hepatic Extraction,rat hepatocytes,47.3 ± 0.78%
same,In vitro Metabolic CLpred,rat hepatocytes,26.2 ± 0.5 mL/min/kg
same,Hepatic Extraction,dog hepatocytes,71.0 ± 2.49%
same,In vitro Metabolic CLpred,dog hepatocytes,22 ± 0.83 mL/min/kg
same,Hepatic Extraction,monkey hepatocytes,64.4 ± 0.28%
same,In vitro Metabolic CLpred,monkey hepatocytes,28 ± 0.17 mL/min/kg
same,Hepatic Extraction,human hepatocytes,67.0 ± 1.73%
same,In vitro Metabolic CLpred,human hepatocytes,13.8 ± 3.67 mL/min/kg
same,Oral Bioavailability,[5],21%
same,CL,[6]; IV 1 mg/kg,9 mL/min/kg
same,Oral Bioavailability,[6]; oral 3 mg/kg vs IV 1 mg/kg,82%
same,tissues with the most radioactive material,[7],"Liver, small intestine, and cecum had the most radioactive material"
same,major elimination pathway,[8],biliary excretion
same,metabolite formed,[8],acyl glucuronide metabolite
same,pharmacodynamics biomarker 7AC4 after repeated oral dosing,[9],sustained suppression
same,incidences of pruritus,[10],no incidences of pruritus
same,change in distribution to the liver on co-administration of rifampin,[11],does not result in a significant change
same,Pruritus,[12]; 25 mg daily for 7 days,No
same,Pruritus,[12]; 75 mg daily for 7 days,No
same,Pruritus,[12]; 150 mg daily for 7 days,No
same,% 7AC4 suppression at nadir,[12]; oral 25 mg daily for 7 days,75%
same,% 7AC4 suppression at nadir,[12]; oral 75 mg daily for 7 days,82%
same,% 7AC4 suppression at nadir,[12]; oral 150 mg daily for 7 days,93%
same,Pruritus,[12]; subjects taking the highest doses of Compound 1,no pruritus was observed
same,BSEP liver expression (CPM) Relative to Vehicle,"mouse model of NASH; 30 mg/kg, NASH mice",5.1
same,CYP7A1 liver expression (CPM) Relative to Vehicle,"mouse model of NASH; 30 mg/kg, NASH mice",0.02
same,CYP8B1 liver expression (CPM) Relative to Vehicle,"mouse model of NASH; 30 mg/kg, NASH mice",0.007
same,OST-B liver expression (CPM) Relative to Vehicle,"mouse model of NASH; 30 mg/kg, NASH mice",135.7
same,SHP liver expression (CPM) Relative to Vehicle,"mouse model of NASH; 30 mg/kg, NASH mice",4.6
same,liver triglyceride levels,mouse model of NASH; 100 mg/kg,statistically significant reduced
same,serum triglyceride concentration,mouse model of NASH; 100 mg/kg,statically significant reduction
same,serum ALT level,mouse model of NASH; [14],reduced
same,serum AST level,mouse model of NASH; [14],reduced
same,ballooning vs untreated NASH mice,mouse model of NASH; [15],significantly reduced
same,inflammation vs untreated NASH mice,mouse model of NASH; [15],significantly reduced
same,steatosis vs untreated NASH mice,mouse model of NASH; [15],significantly reduced
same,serum total cholesterol level,"mouse model of NASH; 10, 30, and 100 mg/kg",statistically significant reduction
same,"collagen, type 1, alpha 1 expression in the liver vs control NASH mice","mouse model of NASH; 10, 30, or 100 mg/kg",decreased
same,NAFLD Activity Score (NAS) vs untreated NASH mice,mouse model of NASH; [16],significantly lower
same,liver fibrosis (Sirius Red) vs untreated NASH control,mouse model of NASH; [16],statistically significant reduced fibrosis
same,expression of inflammatory and fibrosis related genes,mouse model of NASH; mouse model of NASH,reduced
same,"induction of FXR-specific genes, liver vs ileum (RT-qPCR)",[4]; single oral 10 mg/kg,preferentially induces FXR-specific genes in the liver
same,number of differentially expressed NASH-related genes modulated vs vehicle (liver RNAseq),[4]; [13],500
